These results are taken from patent publication US20170002055A1, “Novel peptides and combination of peptides for use in immunotherapy against ovarian cancer and other cancers” (immatics biotechnologies GmbH, priority 2015, published 2017).

Assay [1] deals with CD8+ T cells. In words: In vitro immunogenicity: priming of CD8+ T cells with artificial APCs loaded with peptide/MHC and anti-CD28, multimer readout. Type of assay: cell-based, human. The settings on record: for Wells positive [%]: HLA-A*02 restricted peptides, percentage of positive wells; for donors: HLA-A*02, percentage of positive donors; for wells: HLA-A*02, percentage of positive wells. An excerpt: In order to obtain information regarding the immunogenicity of the TUMAPs of the present invention, the inventors performed investigations using an in vitro T-cell priming assay based on repeated stimulations of CD8+ T cells with artificial antigen presenting cells (aAPCs) loaded with peptide/MHC complexes and anti-CD28 antibody.
In order to perform in vitro stimulations by artificial antigen presenting cells loaded with peptide-MHC complex (pMHC) and anti-CD28 antibody, the inventors first isolated CD8+ T cells from fresh HLA-A*02 leukapheresis products via positive selection using CD8 microbeads (Miltenyi Biotec, Bergisch-Gladbach, Germany) of healthy donors obtained from the University clinics Mannheim, Germany, after informed consent.
PBMCs and isolated CD8+ lymphocytes were incubated in T-cell medium (TCM) until use consisting of RPMI-Glutamax (Invitrogen, Karlsruhe, Germany) supplemented with 10% heat inactivated human AB serum (PAN-Biotech, Aidenbach, Germany), 100 U/ml Penicillin/100 μg/ml Streptomycin (Cambrex, Cologne, Germany), 1 mM sodium pyruvate (CC Pro, Oberdorla, Germany), 20 μg/ml Gentamycin (Cambrex). 2.5 ng/ml IL-7 (PromoCell, Heidelberg, Germany) and 10 U/ml IL-2 (Novartis Pharma, Nürnberg, Germany) were also added to the TCM at this step.
Generation of pMHC/anti-CD28 coated beads, T-cell stimulations and readout was performed in a highly defined in vitro system using four different pMHC molecules per stimulation condition and 8 different pMHC molecules per readout condition.
The purified co-stimulatory mouse IgG2a anti human CD28 Ab 9.3 (Jung et al., 1987) was chemically biotinylated using Sulfo-N-hydroxysuccinimidobiotin as recommended by the manufacturer (Perbio, Bonn, Germany). Beads used were 5.6 μm diameter streptavidin coated polystyrene particles (Bangs Laboratories, Illinois, USA).
pMHC used for positive and negative control stimulations were A*0201/MLA-001 (peptide […] (SEQ ID NO. 664) from modified Melan-A/MART-1) and A*0201/DDX5-001 ([…] from DDX5, SEQ ID NO. 665), respectively.
800.000 beads/200 μl were coated in 96-well plates in the presence of 4×12.5 ng different biotin-pMHC, washed and 600 ng biotin anti-CD28 were added subsequently in a volume of 200 μl. Stimulations were initiated in 96-well plates by co-incubating […] CD8+ T cells with 2×10^5 washed coated beads in 200 μl TCM supplemented with 5 ng/ml IL-12 (PromoCell) for 3 days at 37° C. Half of the medium was then exchanged by fresh TCM supplemented with 80 U/ml IL-2 and incubating was continued for 4 days at 37° C. This stimulation cycle was performed for a total of three times. For the pMHC multimer readout using 8 different pMHC molecules per condition, a two-dimensional combinatorial coding approach was used as previously described (Andersen et al., 2012) with minor modifications encompassing coupling to 5 different fluorochromes. Finally, multimeric analyses were performed by staining the cells with Live/dead near IR dye (Invitrogen, Karlsruhe, Germany), CD8-FITC antibody clone SK1 (BD, Heidelberg, Germany) and fluorescent pMHC multimers. For analysis, a BD LSRII SORP cytometer equipped with appropriate lasers and filters was used. Peptide specific cells were calculated as percentage of total CD8+ cells. Evaluation of multimeric analysis was done using the FlowJo software (Tree Star, Oregon, USA). In vitro priming of specific multimer+ CD8+ lymphocytes was detected by comparing to negative control stimulations.

The target of assay [2] is HLA-A*02:01 (Homo sapiens, UniProt P04439, D140Y/D185E/D98H/E176V/E277Q/G131W/G231S/I119V/I121R/I166T/I218V/L300P/L318F/N151K/N90K/P208A/P217A/Q86G/Q94H/R138H/R169H/T345S). Kind of assay: MHC binding assay (UV-ligand exchange, β2m ELISA, peptide exchange yield). The settings on record: MHC class I binding score; binding to HLA-A*02:01 ranged by peptide exchange yield (UV-ligand exchange, β2m ELISA). An outline of the steps: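 Peptide–HLA-A*02:01 complexes were formed by UV-mediated exchange of a UV-cleavable ligand for the test peptide. Exchange yield was measured by capturing complexes on streptavidin, detecting with HRP anti-β2m antibody (1 h, 37°C) and reading TMB absorbance at 450 nm.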
On the technique in general: An ELISA detects its analyte on a solid surface through an enzyme-linked reagent.

In the case of “2 (SLLEADPFL; listed as Homo sapiens) [compound 2]”, the “Wells positive [%]” value in assay [1] is reported as ““+” (<20% = +)”. The Peptide exchange result in assay [2] is listed as ““+++” (≧50 = +++)”.
The like results for “3 (SLASKLTTL; listed as Homo sapiens) [compound 3]” were, in that order, ““+” (<20% = +)” and ““++++” (≧75% = ++++)”.
As to “5 (HLTEVYPEL; listed as Homo sapiens) [compound 5]”, in assay [1], the “Wells positive [%]” value is ““+++” (50%-69% = +++)”. The Peptide exchange result in assay [2] is given as ““+++” (≧50 = +++)”.
On to “7 (SLVGLLLYL; listed as Homo sapiens) [compound 7]”, for which the “Wells positive [%]” value in assay [1] is listed as ““++” (20%-49% = ++)”. Also, in assay [2], the Peptide exchange entry is ““++++” (≧75% = ++++)”.
The corresponding values for “8 (FTLGNVVGMYL; listed as Homo sapiens) [compound 8]” are ““+” (<20% = +)” and ““++++” (≧75% = ++++)”.
The like results for “11 (KIFEMLEGV; listed as Homo sapiens) [compound 11]” were, in that order, ““+” (<20% = +)” and ““+++” (≧50 = +++)”.
The corresponding values for “17 (GLLPGDRLVSV; listed as Homo sapiens) [compound 17]” are ““++” (20%-49% = ++)” and ““+++” (≧50 = +++)”.
With “19 (FMVDNEAIYDI; listed as Homo sapiens) [compound 19]”, the “Wells positive [%]” value in assay [1] was ““++” (20%-49% = ++)”. In addition, the Peptide exchange result in assay [2] is ““++++” (≧75% = ++++)”.
The like results for “36 (YVLEDLEVTV; listed as Homo sapiens) [compound 36]” were, in that order, ““+” (<20% = +)” and ““++” (≧20% = ++)”.
The corresponding values for “38 (FLLEDDIHVS; listed as Homo sapiens) [compound 38]” are ““+” (<20% = +)” and ““+++” (≧50 = +++)”.
With “40 (TLLVKVFSV; listed as Homo sapiens) [compound 40]”, the “Wells positive [%]” value in assay [1] was ““++” (20%-49% = ++)”. In assay [2], the Peptide exchange entry is reported as ““+++” (≧50 = +++)”.
The corresponding values for “48 (ALAELYEDEV; listed as Homo sapiens) [compound 48]” are ““+” (<20% = +)” and ““+++” (≧50 = +++)”.
The corresponding values for “49 (YLPAVFEEV; listed as Homo sapiens) [compound 49]” are ““++” (20%-49% = ++)” and ““+++” (≧50 = +++)”.
The like results for “56 (KLYEGIPVLL; listed as Homo sapiens) [compound 56]” were, in that order, ““+” (<20% = +)” and ““++++” (≧75% = ++++)”.
For “60 (SLTIDGIYYV; listed as Homo sapiens) [compound 60]”, the “Wells positive [%]” value in assay [1] is on record as ““++++” (> = 70% = ++++)”. In assay [2], the Peptide exchange result was ““++++” (≧75% = ++++)”.
As to “61 (FLQGYQLHL; listed as Homo sapiens) [compound 61]”, the “Wells positive [%]” value in assay [1] is given as ““++” (20%-49% = ++)”. The Peptide exchange result in assay [2] was ““++++” (≧75% = ++++)”.
The like results for “79 (SLFIGEKAVLL; listed as Homo sapiens) [compound 79]” were, in that order, ““+” (<20% = +)” and ““+++” (≧50 = +++)”.
The like results for “108 (ALFPGVALLLA; listed as Homo sapiens) [compound 108]” were, in that order, ““++” (20%-49% = ++)” and ““++++” (≧75% = ++++)”.
The like results for “113 (GLLPTPLFGV; listed as Homo sapiens) [compound 113]” were, in that order, ““+” (<20% = +)” and ““+++” (≧50 = +++)”.
“118 (KLIDNNINV; listed as Homo sapiens) [compound 118]”: in assay [1], the “Wells positive [%]” value was ““+” (<20% = +)”. The Peptide exchange result in assay [2] was ““+++” (≧50 = +++)”.
In the case of “141 (YLDFSNNRL; listed as Homo sapiens) [compound 141]”, the “Wells positive [%]” value in assay [1] is ““+” (<20% = +)”. The Peptide exchange entry in assay [2] was ““++” (≧20% = ++)”.
The corresponding values for “143 (LLLDITPEI; listed as Homo sapiens) [compound 143]” are ““+” (<20% = +)” and ““++++” (≧75% = ++++)”.
The corresponding values for “150 (RLWEEGEELEL; listed as Homo sapiens) [compound 150]” are ““+” (<20% = +)” and ““+++” (≧50 = +++)”.
The corresponding values for “152 (ILFEDIFDV; listed as Homo sapiens) [compound 152]” are ““++” (20%-49% = ++)” and ““+++” (≧50 = +++)”.
Regarding “157 (SLNDEVPEV; listed as Homo sapiens) [compound 157]”, the “Wells positive [%]” value in assay [1] was ““+++” (50%-69% = +++)”. Also, the Peptide exchange result in assay [2] is ““++” (≧20% = ++)”.
The like results for “166 (YLNHLEPPV; listed as Homo sapiens) [compound 166]” were, in that order, ““++++” (> = 70% = ++++)” and ““+++” (≧50 = +++)”.
The like results for “191 (LLQEGQALEYV; listed as Homo sapiens) [compound 191]” were, in that order, ““+++” (50%-69% = +++)” and ““++” (≧20% = ++)”.
The corresponding values for “198 (KTINKVPTV; listed as Homo sapiens) [compound 198]” are ““++” (20%-49% = ++)” and ““+++” (≧50 = +++)”.
In the case of “199 (ALQDVPLSSV; listed as Homo sapiens) [compound 199]”, the “Wells positive [%]” value in assay [1] is reported as ““+” (<20% = +)”. For the same substance, the Peptide exchange result in assay [2] was ““+++” (≧50 = +++)”.
Consider “215 (QLINHLHAV; listed as Homo sapiens) [compound 215]”, for which the “Wells positive [%]” value in assay [1] is given as ““++” (20%-49% = ++)”. In addition, in assay [2], the Peptide exchange result is recorded as ““+++” (≧50 = +++)”.
With “242 (AIAYILQGV; listed as Homo sapiens) [compound 242]”, in assay [1], the “Wells positive [%]” value was ““+++” (50%-69% = +++)”. Moreover, the Peptide exchange result in assay [2] was ““++” (≧20% = ++)”.
The like results for “247 (VLLPNDLLEKV; listed as Homo sapiens) [compound 247]” were, in that order, ““+” (<20% = +)” and ““+++” (≧50 = +++)”.
Turning to “648 (LLWGNAIFL; listed as Homo sapiens) [compound 648]”, in assay [1], the donors entry is on record as “+++ (50%-69 = +++)” and the wells entry was “++ (20%-49% = ++)”.
The like results for “652 (TLWYRAPEV; listed as Homo sapiens) [compound 652]” were, in that order, “++++ (> = 70% = ++++)” and “+++ (50%-69 = +++)”.
The corresponding values for “659 (ILFPDIIARA; listed as Homo sapiens) [compound 659]” are “+++ (50%-69 = +++)” and “+ (<20% = +)”.
As for “662 (KIQEILTQV; listed as Homo sapiens) [compound 662]”, in assay [1], the donors result is recorded as “+++ (50%-69 = +++)” and the wells result is “+ (<20% = +)”.
Consider “663 (KIQEMQHFL; listed as Homo sapiens) [compound 663]”, for which, in assay [1], the donors entry was “+++ (50%-69 = +++)” and the wells result is recorded as “+ (<20% = +)”.
